Reference: US8541363B2, “Pyruvamide compounds as inhibitors of dust mite group 1 peptidase allergen and their use” (St George's Hosptial Medical School, priority 2010, dated 2013)

These compounds were tested against Der p 1 (Dermatophagoides pteronyssinus (European house dust mite), UniProt P08176) (assay: Der p 1 enzyme activity assay (FRET fluorogenic substrate)). Settings: Der p 1 IC50.
Type: biochemical
Protocol: The fluorogenic substrate used for measuring Der p 1 proteolytic activity was 2-aminobenzoylvalylalanylnorleucylseryl-(3-nitro)tyrosinyl aspartamide.
Test compounds were dissolved in dry DMSO and maintained at 4° C. as stock solutions until being diluted for use in screening assays. Final concentration of DMSO in all enzymatic assays was 0.5% v/v.
Reaction mixtures were assembled in a 96-well plate format (Perkin Elmer Optiplate 96F, Perkin Elmer LAS, Seer Green, Buckinghamshire, UK) using a Perkin Elmer MultiPROBE II Plus HTS EX robot with Gripper attachment. […] Dithiothreitol (DTT, 10 μL/well, 1 mM final concentration) was then added together with 10 μL of Der p 1 dissolved at 2.5 μg/mL in reaction buffer supplemented with 1 mM DTT. […] The plate was immediately transferred to a fluorescence plate reader (Perkin Elmer Fusion Alpha-FP or Perkin Elmer Envision) equipped with a temperature-controlled carrier set at 30° C. and the reaction followed by excitation/emission at 330/420 nm.
Inhibitory activity was analysed from progress curves of reactions in the presence of a range of inhibitor concentrations.
Initial velocity in each well was converted to fractional activity by Equation 1: Fractional activity=(Initial rate at inhibitor concentration[X]/Initial rate at inhibitor concentration zero)*100 Equation 1:
Then, IC50 was determined by fitting the data of fractional activity and inhibitor concentration to a 4-parameter logistic curve, using Equation 2: V=Vmin+[Vmax−Vmin]/[1+(X/IC50)Hillslope] […] Biological Data—Der p 1 Enzyme Assay

Chain of Der p 1 (P08176 99-320): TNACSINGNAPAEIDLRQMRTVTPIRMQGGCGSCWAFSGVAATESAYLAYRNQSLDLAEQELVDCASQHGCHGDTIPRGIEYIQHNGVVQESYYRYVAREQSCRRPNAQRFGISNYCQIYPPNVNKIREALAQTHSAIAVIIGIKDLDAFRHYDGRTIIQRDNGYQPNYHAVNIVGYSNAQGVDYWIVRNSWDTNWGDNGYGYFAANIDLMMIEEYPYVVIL

Structure (SMILES)	IC50 [nM]
CC(C)[C@H](NC(=O)[C@H](C)NC(=O)[C@H](Cc1ccccc1)NC(=O)c1ccccc1)C(=O)C(=O)NCC(=O)N1CCN(C)CC1 [PVA-047]	< 20
CC(C)[C@H](NC(=O)[C@H](C)NC(=O)[C@@H](NC(=O)c1ccccc1)C(C)(C)C)C(=O)C(=O)NCC(=O)N1CCN(C)CC1 [PVA-055]	< 20

Same assay, conditions: Table 1; read-out: Der p 1 IC50

Structure (SMILES)	IC50 [nM]
CCCC[C@H](NC(=O)[C@H](C)NC(=O)[C@@H](NC(=O)c1ccccc1)C(C)(C)C)C(=O)C(=O)NC1CCCCC1 [PVA-037]	7.85
CCCC[C@H](NC(=O)[C@H](C)NC(=O)[C@@H](NC(=O)c1ccncc1)C(C)(C)C)C(=O)C(=O)NC1CCCCC1 [PVA-039]	6.3

Same assay, conditions: threshold stated in text; read-out: Der p 1 IC50

Structure (SMILES)	IC50 [nM]
CC(C)C(NC(=O)[C@H](C)NC(=O)[C@@H](Cc1ccccc1)NC(=O)c1ccncc1)C(=O)C(=O)NC1CCCCC1 (stereo in doubt) [PVA-020]	< 200
CC(C)C[C@H](NC(=O)[C@H](C)NC(=O)[C@H](Cc1ccccc1)NC(=O)c1ccccc1)C(=O)C(=O)N[C@@H](C)c1ccccc1 [PVA-002]	< 200
CC(C)[C@H](NC(=O)[C@H](C)NC(=O)[C@H](Cc1ccccc1)NC(=O)c1ccccc1)C(=O)C(=O)NC1CCCCC1 [PVA-003]	< 20
CC(C)C[C@H](NC(=O)[C@H](C)NC(=O)[C@H](Cc1ccccc1)NC(=O)c1ccccc1)C(=O)C(=O)NC(C)C [PVA-004]	< 200
CC(C)C[C@H](NC(=O)[C@H](C)NC(=O)[C@H](Cc1ccccc1)NC(=O)c1ccccc1)C(=O)C(=O)NCc1ccccc1 [PVA-005]	< 20
CCCCC(NC(=O)[C@H](C)NC(=O)[C@H](Cc1ccccc1)NC(=O)c1ccccc1)C(=O)C(=O)N1CCCC1 (some centres unmarked) [PVA-006]	< 2000
CCCCC(NC(=O)[C@H](C)NC(=O)[C@H](Cc1ccccc1)NC(=O)c1ccccc1)C(=O)C(=O)N1CCN(C)CC1 (some centres unmarked) [PVA-007]	< 2000
CC(C)[C@H](NC(=O)[C@H](C)NC(=O)[C@H](Cc1ccccc1)NC(=O)c1ccccc1)C(=O)C(=O)NCc1ccccc1 [PVA-009]	< 20
CC(C)[C@H](NC(=O)[C@H](C)NC(=O)[C@H](Cc1ccccc1)NC(=O)c1ccccc1)C(=O)C(=O)NCCc1ccccc1 [PVA-010]	< 200
CC(C)[C@H](NC(=O)[C@H](C)NC(=O)[C@H](Cc1ccccc1)NC(=O)c1ccccc1)C(=O)C(=O)Nc1ccc(F)cc1 [PVA-011]	< 200
COc1ccc(NC(=O)C(=O)[C@@H](NC(=O)[C@H](C)NC(=O)[C@H](Cc2ccccc2)NC(=O)c2ccccc2)C(C)C)cc1 [PVA-012]	< 2000
CC(C)NC(=O)C(=O)[C@@H](NC(=O)[C@H](C)NC(=O)[C@H](Cc1ccccc1)NC(=O)c1ccccc1)C(C)C [PVA-015]	< 200
CC(C)[C@H](NC(=O)[C@H](C)NC(=O)[C@H](Cc1ccccc1)NC(=O)c1ccccc1)C(=O)C(=O)N[C@@H](C)c1ccccc1 [PVA-016]	< 2000
C[C@H](NC(=O)[C@H](Cc1ccccc1)NC(=O)c1ccccc1)C(=O)NCC(=O)C(=O)N1CCC(N(C)C)CC1 [PVA-018]	< 2000
CC(C)[C@H](NC(=O)[C@H](C)NC(=O)[C@@H](Cc1ccccc1)NC(=O)c1ccc(-c2ccccc2)cc1)C(=O)C(=O)NC1CCCCC1 [PVA-019]	< 200
CC(C)[C@H](NC(=O)[C@H](C)NC(=O)[C@@H](Cc1ccccc1)NC(=O)c1cccc(Oc2ccccc2)c1)C(=O)C(=O)NC1CCCCC1 [PVA-021]	< 2000
CC(C)C(NC(=O)[C@H](C)NC(=O)[C@H](Cc1ccccc1)NC(=O)c1ccccc1)C(=O)C(=O)NCc1ccncc1 (some centres unmarked) [PVA-022]	< 200
CC(C)C(NC(=O)[C@H](C)NC(=O)[C@H](Cc1ccccc1)NC(=O)c1ccccc1)C(=O)C(=O)NCc1ccccn1 (some centres unmarked) [PVA-023]	< 200
CC(C)C(NC(=O)[C@H](C)NC(=O)[C@H](Cc1ccccc1)NC(=O)c1ccccc1)C(=O)C(=O)NCc1cccnc1 (some centres unmarked) [PVA-024]	< 200
CC(C)C(NC(=O)[C@H](C)NC(=O)[C@H](Cc1ccccc1)NC(=O)c1ccccc1)C(=O)C(=O)NCCN1CCCC1 (some centres unmarked) [PVA-025]	< 2000
CC(C)[C@H](NC(=O)[C@H](C)NC(=O)[C@@H](Cc1ccc(F)cc1)NC(=O)c1ccccc1)C(=O)C(=O)NC1CCCCC1 [PVA-027]	< 200
CC(C)[C@H](NC(=O)[C@H](C)NC(=O)[C@@H](Cc1ccc(F)c(F)c1)NC(=O)c1ccccc1)C(=O)C(=O)NC1CCCCC1 [PVA-028]	< 200
CC(C)[C@H](NC(=O)[C@H](C)NC(=O)[C@H](NC(=O)c1ccccc1)C1Cc2ccccc2C1)C(=O)C(=O)NC1CCCCC1 [PVA-029]	< 2000
CC(C)[C@H](NC(=O)[C@H](C)NC(=O)[C@@H](Cc1ccccc1F)NC(=O)c1ccccc1)C(=O)C(=O)NC1CCCCC1 [PVA-030]	< 200
CC(C)[C@H](NC(=O)[C@H](C)NC(=O)[C@@H](Cc1cccc(F)c1)NC(=O)c1ccccc1)C(=O)C(=O)NC1CCCCC1 [PVA-031]	< 200
CC(C)[C@H](NC(=O)[C@H](C)NC(=O)[C@@H](Cc1ccc2ccccc2c1)NC(=O)c1ccccc1)C(=O)C(=O)NCc1ccccc1 [PVA-032]	< 200

Structure (SMILES)	IC50 [nM]
CC(C)[C@H](NC(=O)[C@H](C)NC(=O)[C@@H](Cc1ccc(-c2ccccc2)cc1)NC(=O)c1ccccc1)C(=O)C(=O)NCc1ccccc1 [PVA-033]	< 200
CC(C)[C@H](NC(=O)[C@H](C)NC(=O)[C@@H](Cc1cccc2ccccc12)NC(=O)c1ccccc1)C(=O)C(=O)NCc1ccccc1 [PVA-034]	< 2000
CC(C)[C@H](NC(=O)[C@H](C)NC(=O)[C@@H](Cc1ccccc1)NC(=O)c1ccncc1)C(=O)C(=O)NCc1ccccc1 [PVA-035]	< 20
CC(C)[C@H](NC(=O)[C@H](C)NC(=O)[C@@H](Cc1ccncc1)NC(=O)c1ccccc1)C(=O)C(=O)NC1CCCCC1 [PVA-036]	< 200
CCCC[C@H](NC(=O)[C@H](C)NC(=O)[C@@H](NC(=O)c1ccccc1)C(C)(C)C)C(=O)C(=O)NC1CCCCC1 [PVA-037]	< 20
CCCC[C@H](NC(=O)[C@H](C)NC(=O)[C@@H](NC(=O)c1ccncc1)C(C)(C)C)C(=O)C(=O)NC1CCCCC1 [PVA-039]	< 20
CCCCC(NC(=O)[C@H](C)NC(=O)[C@H](Cc1ccccc1)NC(=O)c1ccccc1)C(=O)C(=O)NCc1ccncc1 (some centres unmarked) [PVA-040]	< 2000
CC(C)[C@H](NC(=O)[C@H](C)NC(=O)[C@H](Cc1ccccc1)NC(=O)c1ccccc1)C(=O)C(=O)NCc1ccc2c(c1)OCO2 [PVA-041]	< 200
COc1ccc(CNC(=O)C(=O)[C@@H](NC(=O)[C@H](C)NC(=O)[C@H](Cc2ccccc2)NC(=O)c2ccccc2)C(C)C)cc1 [PVA-042]	< 20
CCCC[C@H](NC(=O)[C@H](C)NC(=O)[C@@H](Cc1ccccc1)NC(=O)c1ccc(N2CCN(C)CC2)cc1)C(=O)C(=O)NC1CCCCC1 [PVA-043]	< 2000
CC(C)[C@H](NC(=O)[C@H](C)NC(=O)[C@H](Cc1ccccc1)NC(=O)c1ccccc1)C(=O)C(=O)NC1CCOCC1 [PVA-044]	< 200
CC(C)[C@H](NC(=O)[C@H](C)NC(=O)[C@@H](Cc1ccc(F)cc1)NC(=O)c1ccccc1)C(=O)C(=O)NCc1ccccc1 [PVA-045]	< 200
COCCNC(=O)C(=O)[C@@H](NC(=O)[C@H](C)NC(=O)[C@H](Cc1ccccc1)NC(=O)c1ccccc1)C(C)C [PVA-046]	< 200
CC(C)[C@H](NC(=O)[C@H](C)NC(=O)[C@@H](NC(=O)c1ccnc(N2CCOCC2)c1)C(C)(C)C)C(=O)C(=O)NCc1ccccc1 [PVA-048]	< 200
CC(C)[C@H](NC(=O)[C@H](C)NC(=O)[C@@H](NC(=O)c1ccc(N2CCOCC2)nc1)C(C)(C)C)C(=O)C(=O)NC1CCCCC1 [PVA-049]	< 200
CC(C)[C@H](NC(=O)[C@H](C)NC(=O)[C@H](Cc1ccccc1)NC(=O)c1ccc2ncsc2c1)C(=O)C(=O)NC1CCCCC1 [PVA-050]	< 200
CC(C)[C@H](NC(=O)[C@H](C)NC(=O)[C@H](Cc1ccccc1)NC(=O)c1ccc2ncsc2c1)C(=O)C(=O)NCc1ccccc1 [PVA-051]	< 200
CC(C)[C@H](NC(=O)[C@H](C)NC(=O)[C@@H](NC(=O)c1cccc2ccccc12)C(C)(C)C)C(=O)C(=O)NC1CCCCC1 [PVA-052]	< 200
CC(C)[C@H](NC(=O)[C@H](C)NC(=O)[C@@H](NC(=O)c1ccc2ncsc2c1)C(C)(C)C)C(=O)C(=O)NC1CCCCC1 [PVA-053]	< 200
CC(C)[C@H](NC(=O)[C@H](C)NC(=O)[C@@H](NC(=O)c1cnccn1)C(C)(C)C)C(=O)C(=O)NC1CCCCC1 [PVA-054]	< 200
CC(C)[C@H](NC(=O)[C@H](C)NC(=O)[C@@H](NC(=O)c1cccc2ccccc12)C(C)(C)C)C(=O)C(=O)NCc1ccccc1 [PVA-056]	< 200
CC(C)[C@H](NC(=O)[C@H](C)NC(=O)[C@@H](NC(=O)c1ccc2ncsc2c1)C(C)(C)C)C(=O)C(=O)NCc1ccccc1 [PVA-057]	< 200
CC(C)[C@H](NC(=O)[C@H](C)NC(=O)[C@@H](NC(=O)c1cnccn1)C(C)(C)C)C(=O)C(=O)NCc1ccccc1 [PVA-058]	< 200
CC(=O)Nc1ccc(C(=O)N[C@@H](Cc2ccccc2)C(=O)N[C@@H](C)C(=O)N[C@H](C(=O)C(=O)NCc2ccccc2)C(C)C)cn1 [PVA-059]	< 200
CC(=O)Nc1cc(C(=O)N[C@@H](Cc2ccccc2)C(=O)N[C@@H](C)C(=O)N[C@H](C(=O)C(=O)NCc2ccccc2)C(C)C)ccn1 [PVA-060]	< 200
CC(=O)Nc1ccc(C(=O)N[C@H](C(=O)N[C@@H](C)C(=O)N[C@H](C(=O)C(=O)NC2CCCCC2)C(C)C)C(C)(C)C)cn1 [PVA-061]	< 200
